# Test results published in patent US8633315B2, “Substituted hydroxyethyl amine compounds as beta-secretase modulators and methods of use” (Amgen Inc., priority 2007, dated 2014).
# Like-named read-outs stand apart in the source and are kept apart here.
# Experiments:
# [1] = tested on: Cells stably expressing Amyloid Precursor Protein (APP); assay: In vitro BACE cell-based assay (HEK cell assay): Aβ40 in conditioned medium by sandwich ELISA
# How it was run: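 APP-stably-expressing cells were grown 24 h in DMEM/10% FBS, then treated for 24 h with 10-point doses starting at 100 μM or 10 μM, at 0.1% DMSO final. Aβ40 in conditioned medium was measured by sandwich ELISA (pAb40 capture, biotinylated 6E10 detection, europium time-resolved fluorescence); IC50 from percent inhibition.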
# BACE1 = BACE1 (Homo sapiens, UniProt P56817); assay: In vitro enzymatic BACE FRET (fluorescence resonance energy transfer) assay; assay type: biochemical
# How it was run: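 Cleavage of a quenched peptide FRET substrate (50 nM) in 0.05 M acetate pH 4.2, 10% DMSO, 100 uM genapol, 1 h incubation. Reaction stopped by Tris neutralization; fluorescence read at excitation 488 nm / […].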
# [2] = Homo sapiens, HEK293, 24 h, Aβ40 in conditioned medium after 24 h incubation
# [3] = Aβ40 in conditioned medium after 24 h incubation
# BACE1, sequence (P56817 46-501, species assumed): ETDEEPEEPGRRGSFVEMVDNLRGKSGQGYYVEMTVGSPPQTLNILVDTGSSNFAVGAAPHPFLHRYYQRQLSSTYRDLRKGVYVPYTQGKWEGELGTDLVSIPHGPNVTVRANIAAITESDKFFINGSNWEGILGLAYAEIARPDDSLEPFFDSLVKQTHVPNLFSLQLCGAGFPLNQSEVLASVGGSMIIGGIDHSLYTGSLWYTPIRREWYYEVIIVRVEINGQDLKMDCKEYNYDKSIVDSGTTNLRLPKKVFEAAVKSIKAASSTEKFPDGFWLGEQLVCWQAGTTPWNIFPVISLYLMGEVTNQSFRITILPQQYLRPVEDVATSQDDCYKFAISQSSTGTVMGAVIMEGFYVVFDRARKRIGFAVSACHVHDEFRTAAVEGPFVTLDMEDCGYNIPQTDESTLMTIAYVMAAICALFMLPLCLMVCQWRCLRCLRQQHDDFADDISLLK
Structure (SMILES),"IC50 [1, 2]",IC50 (BACE1),other results
"C=CC[C@H](NC(=O)c1c(F)cc(F)cc1F)[C@H](O)CN[C@H]1CC2(CCC2)Oc2ncc(CC(C)(C)C)cc21 [Example 78, N-((1S)-1-((1R)-2-(((4′S)-6′-(2,2-dimethylpropyl)-3′,4′-dihydrospiro[cyclobutane-1,2′-pyrano[2,3-b]pyridin]-4′-yl)amino)-1-hydroxyethyl)-3-buten-1-yl)-2,4,6-trifluorobenzamide]",3000 nM,641 nM,–
"C=CC[C@H](NC(C)=O)[C@H](O)CN[C@H]1CC2(CCC2)Oc2c1cc(CC(C)(C)C)nc2N1CCCC1 [Example 46, N-((1S)-1-((1R)-2-(((4′S)-6′-(2,2-dimethylpropyl)-8′-(1-pyrrolidinyl)-3′,4′-dihydrospiro[cyclobutane-1,2′-pyrano[2,3-c]pyridin]-4′-yl)amino)-1-hydroxyethyl)-3-buten-1-yl)acetamide]",183 nM,373 nM,–
"C=CC[C@H](NC(=O)c1ccc(F)cc1)[C@H](O)CN[C@H]1CC2(CCC2)Oc2ncc(CC(C)(C)C)cc21 [Example 58, N-((1S)-1-((1R)-2-(((4′S)-6′-(2,2-dimethylpropyl)-3′,4′-dihydrospiro[cyclobutane-1,2′-pyrano[2,3-b]pyridin]-4′-yl)amino)-1-hydroxyethyl)-3-buten-1-yl)-4-fluorobenzamide]",666 nM,172 nM,–
"C=CC[C@H](NC(=O)COC(C)(C)C)[C@H](O)CN[C@H]1CC2(CCC2)Oc2ncc(CC(C)(C)C)cc21 [Example 144, 2-((1,1-dimethylethyl)oxy)-N-((1S)-1-((1R)-2-(((4′S)-6′-(2,2-dimethylpropyl)-3′,4′-dihydrospiro[cyclobutane-1,2′-pyrano[2,3-b]pyridin]-4′-yl)amino)-1-hydroxyethyl)-3-buten-1-yl)acetamide]",1130 nM,344 nM,–
"C=CC[C@H](NC(=O)COC)[C@H](O)CN[C@H]1CC2(CCC2)Oc2ncc([C@H](F)C(C)(C)C)cc21 [Example 82, N-((1S)-1-((1R)-2-(((4′S)-6′-((1R)-1-fluoro-2,2-dimethylpropyl)-3′,4′-dihydrospiro[cyclobutane-1,2′-pyrano[2,3-b]pyridin]-4′-yl)amino)-1-hydroxyethyl)-3-buten-1-yl)-2-(methyloxy)acetamide]",216 nM,69 nM,–
"C=CCC(NC(=O)CF)C(O)CNC1CC2(CC(O)C2)Oc2ncc(CC(C)(C)C)cc21 [Example 111, N-((1S)-1-((1R)-2-(((1s,3S,4′S)-6′-(2,2-dimethylpropyl)-3-hydroxy-3′,4′-dihydrospiro[cyclobutane-1,2′-pyrano[2,3-b]pyridin]-4′-yl)amino)-1-hydroxyethyl)-3-buten-1-yl)-2-fluoroacetamide]",–,20 nM,"IC50 ([1]; Homo sapiens, HEK293, Aβ40 in conditioned medium after 24 h incubation): 65 nM"
"C=CC[C@H](NC(=O)c1nccs1)[C@H](O)CN[C@H]1CC2(CCC2)Oc2ncc(CC(C)(C)C)cc21 [Example 133, N-((1S)-1-((1R)-2-(((4′S)-6′-(2,2-dimethylpropyl)-3′,4′-dihydrospiro[cyclobutane-1,2′-pyrano[2,3-b]pyridin]-4′-yl)amino)-1-hydroxyethyl)-3-buten-1-yl)-1,3-thiazole-2-carboxamide]",167 nM,106 nM,–
C=CCC(NC(=O)C1CN(C(=O)C(C)C)CCO1)C(O)CNC1CC2(CCC2)Oc2ncc(CC(C)(C)C)cc21 (centres unmarked) [Example 156],33 nM,28 nM,–
"CCC[C@H](NC(=O)[C@@H]1CCCO1)[C@H](O)CN[C@H]1CC2(CCC2)Oc2c1cc(CC(C)(C)C)nc2Cl [compound 224, (2S)-N-((1S)-1-((1R)-2-(((4′S)-8′-chloro-6′-(2,2-dimethylpropyl)-3′,4′-dihydrospiro[cyclobutane-1,2′-pyrano[2,3-c]pyridin]-4′-yl)amino)-1-hydroxyethyl)butyl)tetrahydro-2-furancarboxamide]",–,–,"IC50 ([1]; Homo sapiens, HEK293): 2840 nM; IC50 (BACE1; read-out: BACE 1 FRET assay): 533 nM"
"C=CC[C@H](NC(=O)c1csc(F)c1)[C@H](O)CN[C@H]1CC2(CCC2)Oc2ncc(CC(C)(C)C)cc21 [Example 135, N-((1S)-1-((1R)-2-(((4′S)-6′-(2,2-dimethylpropyl)-3′,4′-dihydrospiro[cyclobutane-1,2′-pyrano[2,3-b]pyridin]-4′-yl)amino)-1-hydroxyethyl)-3-buten-1-yl)-5-fluoro-3-thiophenecarboxamide]",1300 nM,137 nM,–
"C=CC[C@H](NC(=O)[C@@H](F)c1ccccc1)[C@H](O)CN[C@H]1CC2(CCC2)Oc2ncc(CC(C)(C)C)cc21 [Example 142, (2S)-N-((1S)-1-((1R)-2-(((4′S)-6′-(2,2-dimethylpropyl)-3′,4′-dihydrospiro[cyclobutane-1,2′-pyrano[2,3-b]pyridin]-4′-yl)amino)-1-hydroxyethyl)-3-buten-1-yl)-2-fluoro-2-phenylethanamide]",1560 nM,33 nM,–
"C=CC[C@H](NC(=O)c1cc(F)cc(F)c1F)[C@H](O)CN[C@H]1CC2(CCC2)Oc2ncc(CC(C)(C)C)cc21 [Example 74, N-((1S)-1-((1R)-2-(((4′S)-6′-(2,2-dimethylpropyl)-3′,4′-dihydrospiro[cyclobutane-1,2′-pyrano[2,3-b]pyridin]-4′-yl)amino)-1-hydroxyethyl)-3-buten-1-yl)-2,3,5-trifluorobenzamide]",1620 nM,305 nM,–
"C=CC[C@H](NC(=O)COC)[C@H](O)CN[C@H]1CC2(CCC2)Oc2nc(F)c(CC(C)C)cc21 [Example 126, N-((1S)-1-((1R)-2-(((4′S)-7′-fluoro-6′-(2-methylpropyl)-3′,4′-dihydrospiro[cyclobutane-1,2′-pyrano[2,3-b]pyridin]-4′-yl)amino)-1-hydroxyethyl)-3-buten-1-yl)-2-(methyloxy)acetamide]",211 nM,316 nM,–

# Further lines, with some results ahead:
"IC50 [1, 2]",IC50 (BACE1),Structure (SMILES),other results
1040 nM,226 nM,"C=CC[C@H](NC(=O)c1cocn1)[C@H](O)CN[C@H]1CC2(CCC2)Oc2ncc(CC(C)(C)C)cc21 [Example 129, N-((1S)-1-((1R)-2-(((4′S)-6′-(2,2-dimethylpropyl)-3′,4′-dihydrospiro[cyclobutane-1,2′-pyrano[2,3-b]pyridin]-4′-yl)amino)-1-hydroxyethyl)-3-buten-1-yl)-1,3-oxazole-4-carboxamide]",–
–,335 nM,"C=CCC(NC(C)=O)C(O)CNC1CC2(CC(O)C2)Oc2ccc(CC(C)(C)C)cc21 [Example 115, N-((1S)-1-((1R)-2-(((2s,3′S,4S)-6-(2,2-dimethylpropyl)-3′-hydroxy-3,4-dihydrospiro[chromene-2,1′-cyclobutan]-4-yl)amino)-1-hydroxyethyl)-3-buten-1-yl)acetamide]","IC50 [1, 3]: 513 nM"
127 nM,42 nM,"C=CC[C@H](NC(=O)COC)[C@H](O)CNC1CC2(CC(F)(F)C2)Oc2ncc(CC(C)(C)C)cc21 (stereo partly drawn) [Example 41, N-((1S)-1-((1R)-2-((6′-(2,2-dimethylpropyl)-3,3-difluoro-3′,4′-dihydrospiro[cyclobutane-1,2′-pyrano[2,3-b]pyridin]-4′-yl)amino)-1-hydroxyethyl)-3-buten-1-yl)-2-(methyloxy)acetamide]",–
154 nM,73 nM,"C=CC[C@H](NC(=O)C(F)(F)F)[C@H](O)CN[C@H]1CC2(CCC2)Oc2ncc(CC(C)(C)C)cc21 [Example 94, N-((1S)-1-((1R)-2-(((4′S)-6′-(2,2-dimethylpropyl)-3′,4′-dihydrospiro[cyclobutane-1,2′-pyrano[2,3-b]pyridin]-4′-yl)amino)-1-hydroxyethyl)-3-buten-1-yl)-2,2,2-trifluoroacetamide]",–
483 nM,951 nM,"C=CC[C@H](NC(=O)C(C)(C)F)[C@H](O)CN[C@H]1CC2(CCC2)Oc2ncc(CC(C)(C)C)cc21 [Example 141, N-((1S)-1-((1R)-2-(((4′S)-6′-(2,2-dimethylpropyl)-3′,4′-dihydrospiro[cyclobutane-1,2′-pyrano[2,3-b]pyridin]-4′-yl)amino)-1-hydroxyethyl)-3-buten-1-yl)-2-fluoro-2-methylpropanamide]",–
190 nM,94 nM,"C=CC[C@H](NC(=O)c1ccns1)[C@H](O)CN[C@H]1CC2(CCC2)Oc2ncc(CC(C)(C)C)cc21 [Example 130, N-((1S)-1-((1R)-2-(((4′S)-6′-(2,2-dimethylpropyl)-3′,4′-dihydrospiro[cyclobutane-1,2′-pyrano[2,3-b]pyridin]-4′-yl)amino)-1-hydroxyethyl)-3-buten-1-yl)-5-isothiazolecarboxamide]",–
–,6060 nM,"C=CCC(NC(C)=O)C(O)CNC1CC2(CC(O)C2)Oc2ccc(Br)cc21 [Example 118, N-((1S)-1-((1R)-2-(((2s,3′S,4S)-6-bromo-3′-hydroxy-3,4-dihydrospiro[chromene-2,1′-cyclobutan]-4-yl)amino)-1-hydroxyethyl)-3-buten-1-yl)acetamide]","IC50 [1, 3]: ≥ 10000 nM"
4980 nM,561 nM,"C=CC[C@H](NC(=O)c1ccc(F)cn1)[C@H](O)CN[C@H]1CC2(CCC2)Oc2ncc(CC(C)(C)C)cc21 [Example 62, N-((1S)-1-((1R)-2-(((4′S)-6′-(2,2-dimethylpropyl)-3′,4′-dihydrospiro[cyclobutane-1,2′-pyrano[2,3-b]pyridin]-4′-yl)amino)-1-hydroxyethyl)-3-buten-1-yl)-5-fluoro-2-pyridinecarboxamide]",–
420 nM,95 nM,"C=CC[C@H](NC(=O)[C@H](CC)OC)[C@H](O)CN[C@H]1CC2(CCC2)Oc2ncc(CC(C)(C)C)cc21 [Example 147, (2S)-N-((1S)-1-((1R)-2-(((4′S)-6′-(2,2-dimethylpropyl)-3′,4′-dihydrospiro[cyclobutane-1,2′-pyrano[2,3-b]pyridin]-4′-yl)amino)-1-hydroxyethyl)-3-buten-1-yl)-2-(methyloxy)butanamide]",–
